Laboratory results: patent publication US12503436B2, “Compounds and compositions for treating conditions associated with STING activity” (NOVARTIS PHARMA AG, priority 2021, dated 2025)

target: STING (Homo sapiens, UniProt Q86WV6, G230A/H232R/R293Q/R71H); assay: STING reporter assay in THP1-Dual KO-IFNAR2 cells (2′3′cGAMP stimulation, luciferase reporter); format: cell-based; settings: 15 μM 2′3′cGAMP stimulation, 24 h, read-out: Pharmaron, THP1_IFNAR2 STING 24 h Luci Normalized: GeoMean EC50
Summary of the method: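 EC50 from secreted luciferase (QUANTI-Luc Plus luminescence of supernatant) after 24 h at 37 °C, 5% CO2. Cells: THP1-Dual KO-IFNAR2, treated with compound (0.0017-100 μM final) plus lipofected 2′3′cGAMP at 15 μM final.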

STING, sequence (Q86WV6 whole entry R71H/G230A/H232R/R293Q): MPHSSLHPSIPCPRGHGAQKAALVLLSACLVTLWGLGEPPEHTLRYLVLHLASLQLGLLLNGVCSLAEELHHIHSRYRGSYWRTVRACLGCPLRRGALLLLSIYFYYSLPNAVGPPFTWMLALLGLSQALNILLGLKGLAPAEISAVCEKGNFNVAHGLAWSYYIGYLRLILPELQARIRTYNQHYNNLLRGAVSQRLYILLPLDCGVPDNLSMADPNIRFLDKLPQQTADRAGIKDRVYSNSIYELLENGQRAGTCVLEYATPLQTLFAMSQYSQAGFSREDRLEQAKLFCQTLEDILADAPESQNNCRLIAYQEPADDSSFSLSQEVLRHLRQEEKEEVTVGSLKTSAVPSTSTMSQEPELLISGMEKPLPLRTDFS

**Q.** `CC(=O)Nc1c[nH]c2ccc(CCOc3ccc(C4CCC(F)(F)CC4)cc3)cc12` [Compound 224, N-(5-(2-(4-(4,4-difluorocyclohexyl)phenoxy)ethyl)-1H-indol-3-yl)acetamide] was tested. Which EC50 did it give?
**A.** 40 to 200 nM

**Q.** With `CC(=O)Nc1c[nH]c2ccc(CCOc3ccc(C4CC(F)(F)C4)cc3)cc12` [Compound 225, N-(5-(2-(4-(3,3-difluorocyclobutyl)phenoxy)ethyl)-1H-indol-3-yl)acetamide] as the compound, how does the EC50 read?
**A.** 40 to 200 nM

**Q.** How did the EC50 turn out when `CC(=O)Nc1c[nH]c2ccc(CCOc3ccc(C4CCOCC4)cc3)cc12` [Compound 226, N-(5-(2-(4-(tetrahydro-2H-pyran-4-yl)phenoxy)ethyl)-1H-indol-3-yl)acetamide] was run?
**A.** 1000 to 5000 nM

**Q.** `O=C(Nc1c[nH]c2ccc(O[C@H]3C[C@H](c4ccc(C(F)(F)F)cc4)C3)cc12)C1CN(CCC(F)(F)F)C1` [Compound 227, N-(5-(trans-3-(4-(trifluoromethyl)phenyl)cyclobutoxy)-1H-indol-3-yl)-1-(3,3,3-trifluoropropyl)azetidine-3-carboxamide] was tested. Which EC50 did it give?
**A.** 40 to 200 nM

**Q.** With `CC(=O)Nc1c[nH]c2ccc(CCOc3ccc(C)cc3)cc12` [Compound 228, N-(5-(2-(p-tolyloxy)ethyl)-1H-indol-3-yl)acetamide] as the compound, how does the EC50 read?
**A.** 200 to 1000 nM

**Q.** `CC(=O)Nc1c[nH]c2ccc(CCOc3ccc(Cl)cc3)cc12` [Compound 229, N-(5-(2-(4-chlorophenoxy)ethyl)-1H-indol-3-yl)acetamide] was tested. Which EC50 did it give?
**A.** 200 to 1000 nM

**Q.** `CC(=O)Nc1c[nH]c2ccc(CCOc3ccc(C4CCC4)cc3)cc12` [Compound 230, N-(5-(2-(4-cyclobutylphenoxy)ethyl)-1H-indol-3-yl)acetamide] was tested. Which EC50 did it give?
**A.** 40 to 200 nM

**Q.** How did the EC50 turn out when `CC(=O)Nc1c[nH]c2ccc(CCOc3cccc(C(F)(F)F)c3)cc12` [Compound 231, N-(5-(2-(3-(trifluoromethyl)phenoxy)ethyl)-1H-indol-3-yl)acetamide] was run?
**A.** 200 to 1000 nM

**Q.** Which EC50 does the source give for `CC(=O)Nc1c[nH]c2ccc(CCOc3ccc(C(F)(F)F)nc3)cc12` [Compound 232, N-(5-(2-((6-(trifluoromethyl)pyridin-3-yl)oxy)ethyl)-1H-indol-3-yl)acetamide] here?
**A.** 1000 to 5000 nM

**Q.** How did the EC50 turn out when `CC(=O)Nc1c[nH]c2ccc(OC3CN(c4ccc(C(F)(F)F)cc4)C3)cc12` [Compound 233, N-(5-((1-(4-(trifluoromethyl)phenyl)azetidin-3-yl)oxy)-1H-indol-3-yl)acetamide] was run?
**A.** 40 to 200 nM

**Q.** `COC1CC(C(=O)Nc2c[nH]c3ccc(OCCc4ccc(C(F)(F)F)cc4)cc23)C1` (stereo not shown) [Compound 234, 3-methoxy-N-(5-(4-(trifluoromethyl)phenethoxy)-1H-indol-3-yl)cyclobutane-1-carboxamide] was tested. Which EC50 did it give?
**A.** 40 to 200 nM

**Q.** With `CC1(C(=O)Nc2c[nH]c3ccc(OCCc4ccc(C(F)(F)F)cc4)cc23)CCC1` [Compound 235, 1-methyl-N-(5-(4-(trifluoromethyl)phenethoxy)-1H-indol-3-yl)cyclobutane-1-carboxamide] as the compound, how does the EC50 read?
**A.** 40 to 200 nM

**Q.** With `CC1(C)CC(C(=O)Nc2c[nH]c3ccc(OCCc4ccc(C(F)(F)F)cc4)cc23)C1` [Compound 236, 3,3-dimethyl-N-(5-(4-(trifluoromethyl)phenethoxy)-1H-indol-3-yl)cyclobutane-1-carboxamide] as the compound, how does the EC50 read?
**A.** 40 to 200 nM

**Q.** `CC1(C(=O)Nc2c[nH]c3ccc(OCCc4ccc(C(F)(F)F)cc4)cc23)CCOCC1` [Compound 237, 4-methyl-N-(5-(4-(trifluoromethyl)phenethoxy)-1H-indol-3-yl)tetrahydro-2H-pyran-4-carboxamide] was tested. Which EC50 did it give?
**A.** 40 to 200 nM

**Q.** For `CC1(C(=O)Nc2c[nH]c3ccc(OCCc4ccc(C(F)(F)F)cc4)cc23)COC1` [Compound 238, 3-methyl-N-(5-(4-(trifluoromethyl)phenethoxy)-1H-indol-3-yl)oxetane-3-carboxamide], which EC50 is on record?
**A.** 40 to 200 nM

**Q.** How did the EC50 turn out when `O=C(Nc1c[nH]c2ccc(OCCc3ccc(C(F)(F)F)cc3)cc12)C1CCOCC1` [Compound 239, N-(5-(4-(trifluoromethyl)phenethoxy)-1H-indol-3-yl)tetrahydro-2H-pyran-4-carboxamide] was run?
**A.** 40 to 200 nM

**Q.** How did the EC50 turn out when `O=C(Nc1c[nH]c2ccc(CC(O)Cc3ccc(C(F)(F)F)cc3)cc12)C1CC1` (stereo not shown) [Compound 240, N-(5-(2-hydroxy-3-(4-(trifluoromethyl)phenyl)propyl)-1H-indol-3-yl)cyclopropanecarboxamide] was run?
**A.** 200 to 1000 nM

**Q.** `COCCC(=O)Nc1c[nH]c2ccc(O[C@H]3C[C@H](c4ccc(C(F)(F)F)cc4)C3)cc12` [Compound 241, 3-methoxy-N-(5-((1r,3r)-3-(4-(trifluoromethyl)phenyl)cyclobutoxy)-1H-indol-3-yl)propanamide] was tested. Which EC50 did it give?
**A.** 40 to 200 nM

**Q.** With `CO[C@H]1C[C@H](C(=O)Nc2c[nH]c3ccc(O[C@H]4C[C@H](c5ccc(C(F)(F)F)cc5)C4)cc23)C1` [Compound 242, trans-3-methoxy-N-(5-(trans-3-(4-(trifluoromethyl)phenyl)cyclobutoxy)-1H-indol-3-yl)cyclobutane-1-carboxamide] as the compound, how does the EC50 read?
**A.** 40 to 200 nM

**Q.** For `O=C(Nc1c[nH]c2ccc(O[C@H]3C[C@@H](c4ccc(C(F)(F)F)cc4)C3)cc12)C1CN(CC(F)(F)F)C1` [Compound 243, 1-(2,2,2-trifluoroethyl)-N-(5-(cis-3-(4-(trifluoromethyl)phenyl)cyclobutoxy)-1H-indol-3-yl)azetidine-3-carboxamide], which EC50 is on record?
**A.** 40 to 200 nM

**Q.** `O=C(Nc1c[nH]c2ccc(O[C@H]3C[C@H](c4ccc(C(F)(F)F)cc4)C3)cc12)C1CN(CC(F)(F)F)C1` [Compound 244, 1-(2,2,2-trifluoroethyl)-N-(5-(trans-3-(4-(trifluoromethyl)phenyl)cyclobutoxy)-1H-indol-3-yl)azetidine-3-carboxamide] was tested. Which EC50 did it give?
**A.** 40 to 200 nM

**Q.** For `CO[C@H]1C[C@@H](C(=O)Nc2c[nH]c3ccc(O[C@H]4C[C@@H](c5ccc(C(F)(F)F)cc5)C4)cc23)C1` [Compound 245, cis-3-methoxy-N-(5-(cis-3-(4-(trifluoromethyl)phenyl)cyclobutoxy)-1H-indol-3-yl)cyclobutane-1-carboxamide], which EC50 is on record?
**A.** 40 to 200 nM

**Q.** `CO[C@H]1C[C@@H](C(=O)Nc2c[nH]c3ccc(O[C@H]4C[C@H](c5ccc(C(F)(F)F)cc5)C4)cc23)C1` [Compound 246, cis-3-methoxy-N-(5-(trans-3-(4-(trifluoromethyl)phenyl)cyclobutoxy)-1H-indol-3-yl)cyclobutane-1-carboxamide] was tested. Which EC50 did it give?
**A.** 40 to 200 nM

**Q.** How did the EC50 turn out when `CC(=O)Nc1c[nH]c2ccc(OCc3ccc(C(F)(F)F)cc3)cc12` [Compound 247, N-(5-((4-(trifluoromethyl)benzyl)oxy)-1H-indol-3-yl)acetamide] was run?
**A.** 200 to 1000 nM

**Q.** `CC(=O)Nc1c[nH]c2ccc(OCCc3ccc(C(F)(F)F)cc3)nc12` [Compound 248, N-(5-(4-(trifluoromethyl)phenethoxy)-1H-pyrrolo[3,2-b]pyridin-3-yl)acetamide] was tested. Which EC50 did it give?
**A.** 1000 to 5000 nM

**Q.** `O=C(Nc1c[nH]c2ccc(OCCc3ccc(C(F)(F)F)cc3)cc12)C1CC(F)(F)C1` [Compound 249, 3,3-difluoro-N-(5-(4-(trifluoromethyl)phenethoxy)-1H-indol-3-yl)cyclobutane-1-carboxamide] was tested. Which EC50 did it give?
**A.** 200 to 1000 nM

**Q.** Which EC50 does the source give for `CC1(C(=O)Nc2c[nH]c3ccc(OCCc4ccc(C(F)(F)F)cc4)cc23)CC1` [Compound 251, 1-methyl-N-(5-(4-(trifluoromethyl)phenethoxy)-1H-indol-3-yl)cyclopropane-1-carboxamide] here?
**A.** 40 to 200 nM

**Q.** Which EC50 does the source give for `O=C(Nc1c[nH]c2ccc(OCCc3ccc(C(F)(F)F)cc3)cc12)C1CC1` [Compound 252, N-(5-(4-(trifluoromethyl)phenethoxy)-1H-indol-3-yl)cyclopropanecarboxamide] here?
**A.** 40 to 200 nM
